Values quoted from earlier work in PMC11952222, “Development and comparison of single FLT3-inhibitors to dual FLT3/TAF1-inhibitors as an anti-leukemic approach” (PLOS One, 2025).

Tested on: TAF1
Details: reference compounds; read-out: TAF1 IC50, literature-reported; cited from earlier work

With `Cc1cc2c(cc1N1C(=O)c3cccc4c(CCCO)ccc(c34)C1=O)n(C)c(=O)n2C` [BAY299] as the compound, how does the IC50 read?
Its IC50 is 8 nM.
